Reference: US20230365592A1 (Agios Pharmaceuticals, Inc., priority 2022, published 2023)

molecular target: T1, human PAH with the R408W mutation (Homo sapiens, UniProt P00439, R408W); experiment: Cell Based Phenylalanine Flux Assay; conditions: A375 cells expressing R408W PAH; 24 hrs with compound, then 20 µM sepiapterin and 800 µM 13C9,15N-Phenylalanine for 4 hours; 13C-Tyrosine by LC-MS; average where tested multiple times; read-out: AC50;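 further: after compound treatment, cells received sepiapterin plus isotope-labelled Phenylalanine for 4 hours, then labelled Tyrosine in the medium was quantified, 10-point 2-fold dilution series run in duplicate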
T1 construct: expressed in transfected cells
T1 sequence (P00439 1-452 R408W): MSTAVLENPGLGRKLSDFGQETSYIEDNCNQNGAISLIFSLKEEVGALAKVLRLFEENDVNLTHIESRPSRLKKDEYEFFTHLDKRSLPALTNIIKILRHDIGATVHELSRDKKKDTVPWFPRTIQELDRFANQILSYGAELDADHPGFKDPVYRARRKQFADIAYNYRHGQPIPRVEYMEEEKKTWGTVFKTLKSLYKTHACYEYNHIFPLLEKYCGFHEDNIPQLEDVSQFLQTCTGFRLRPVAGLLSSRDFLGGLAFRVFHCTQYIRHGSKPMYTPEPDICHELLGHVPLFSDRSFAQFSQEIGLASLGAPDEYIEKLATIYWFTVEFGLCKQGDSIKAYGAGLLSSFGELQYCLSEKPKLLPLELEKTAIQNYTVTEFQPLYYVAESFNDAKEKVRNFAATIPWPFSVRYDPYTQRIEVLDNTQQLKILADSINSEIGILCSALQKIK

| AC50 [nM] | SMILES |
| --- | --- |
| > 5000 | Cc1ccc2c(C(=O)N3CCc4[nH]cnc4C3c3cc4cccc(C)n4n3)cnn2c1 (stereo not shown) |
| 1000 to 5000 | COCCc1ccc2c(C(=O)N3CCc4[nH]cnc4C3c3cc4cccc(C(F)(F)F)n4n3)cnn2c1 (stereo not shown) |
| > 5000 | CC(C)(C)c1nnc(C(=O)N2CCc3[nH]cnc3C2c2cc3cc(F)ccn3n2)o1 (stereo not shown) |
| > 5000 | Cn1cc(-c2nnc(C(=O)N3CCc4[nH]cnc4C3c3cc4cc(C(F)(F)F)ccn4n3)o2)cn1 (stereo not shown) |
| 1000 to 5000 | Cc1cccn2nc(C3c4nc[nH]c4CCN3C(=O)c3nnc(C(C)(C)O)o3)cc12 (stereo not shown) |
| 1000 to 5000 | CC(O)c1nc(C(F)F)c(C(=O)N2CCc3[nH]cnc3C2c2cc3c(Cl)cccn3n2)o1 (stereo not shown) |
| 1000 to 5000 | CC1(c2nnc(N3CCc4[nH]cnc4C3c3cc4c(C(F)(F)F)cccn4n3)o2)CC1 (stereo not shown) |
| 1000 to 5000 | CC(C)c1nnc(C(=O)N2CCc3[nH]cnc3C2c2cc3cccc(C(F)(F)F)n3n2)o1 (stereo not shown) |
| 1000 to 5000 | O=C(c1cnc(-c2ccccn2)o1)N1CCc2[nH]cnc2C1c1cc2ccccn2n1 (stereo not shown) |

| SMILES | AC50 [nM] |
| --- | --- |
| Cn1cc(N2CCc3[nH]cnc3[C@H]2c2cc3ccccn3n2)cn1 (single isomer, unassigned) | > 5000 |
| Cc1cccc2cc([C@H]3c4nc[nH]c4CCN3C(=O)c3cnn4cc(C5CC5)ccc34)nn12 (single isomer, unassigned) | > 5000 |

same assay, conditions: A375 cells expressing human PAH R408W; 24 hrs compound incubation; 13C-Tyrosine by LC-MS; average where tested multiple times; read-out: AC50

| AC50 [nM] | SMILES |
| --- | --- |
| < 500 | Fc1ccc(-c2nnc(N3CCc4[nH]cnc4[C@H]3c3cc4cccc(C(F)(F)F)n4n3)o2)cc1 [Example 2129, (S)-2-(4-fluorophenyl)-5-(4-(7-(trifluoromethyl)pyrazolo[1,5-a]pyridin-2-yl)-1,4,6,7-tetrahydro-5H-imidazo[4,5-c]pyridin-5-yl)-1,3,4-oxadiazole] |
| > 5000 | Cc1cccn2nc([C@H]3c4nc[nH]c4CCN3C(=O)c3cnc(-c4cnccn4)o3)cc12 [Example 2241, (R)-(4-(4-methylpyrazolo[1,5-a]pyridin-2-yl)-1,4,6,7-tetrahydro-5H-imidazo[4,5-c]pyridin-5-yl)(2-(pyrazin-2-yl)oxazol-5-yl)methanone] |
| 1000 to 5000 | FC(F)c1cccn2nc([C@H]3c4nc[nH]c4CCN3c3cncc(Cl)n3)cc12 [Example 1828, (R)-5-(6-chloropyrazin-2-yl)-4-(4-(difluoromethyl)pyrazolo[1,5-a]pyridin-2-yl)-4,5,6,7-tetrahydro-1H-imidazo[4,5-c]pyridine] |
| 500 to 1000 | Cn1nc(C(F)F)nc1C(=O)N1CCc2[nH]cnc2[C@H]1c1cc2cc(C(F)(F)F)ccn2n1 [Example 2410, (S)-(3-(difluoromethyl)-1-methyl-1H-1,2,4-triazol-5-yl)(4-(5-(trifluoromethyl)pyrazolo[1,5-a]pyridin-2-yl)-6,7-dihydro-1H-imidazo[4,5-c]pyridin-5(4H)-yl)methanone] |
| 1000 to 5000 | FC(F)(F)c1cccn2nc([C@@H]3c4nc[nH]c4CCN3c3nnc(-c4cnccn4)o3)cc12 [Example 2510, (S)-2-(pyrazin-2-yl)-5-(4-(4-(trifluoromethyl)pyrazolo[1,5-a]pyridin-2-yl)-1,4,6,7-tetrahydro-5H-imidazo[4,5-c]pyridin-5-yl)-1,3,4-oxadiazole] |
| > 5000 | FC(F)(F)c1cccn2nc([C@H]3c4nc[nH]c4CCN3c3nnc(-c4cnccn4)o3)cc12 [Example 2511, (R)-2-(pyrazin-2-yl)-5-(4-(4-(trifluoromethyl)pyrazolo[1,5-a]pyridin-2-yl)-1,4,6,7-tetrahydro-5H-imidazo[4,5-c]pyridin-5-yl)-1,3,4-oxadiazole] |
| 1000 to 5000 | Cn1ccc(-c2ncc(C(=O)N3CCc4[nH]cnc4[C@H]3c3cc4c(F)cccn4n3)o2)n1 [Example 2505, (S)-(4-(4-fluoropyrazolo[1,5-a]pyridin-2-yl)-1,4,6,7-tetrahydro-5H-imidazo[4,5-c]pyridin-5-yl)(2-(1-methyl-1H-pyrazol-3-yl)oxazol-5-yl)methanone] |
| 1000 to 5000 | c1cc(C2CC2)c2cc([C@H]3c4nc[nH]c4CCN3c3cnccn3)nn2c1 [Example 2224, (R)-4-(4-cyclopropylpyrazolo[1,5-a]pyridin-2-yl)-5-(pyrazin-2-yl)-4,5,6,7-tetrahydro-1H-imidazo[4,5-c]pyridine] |

same assay, conditions: A375 cells expressing human R408W PAH; 24 hrs compound incubation; 13C-Tyrosine by LC-MS; average where tested multiple times; read-out: AC50

| AC50 [nM] | SMILES |
| --- | --- |
| < 500 | Cc1cccc2cc([C@@H]3c4nc[nH]c4CCN3C(=O)c3nnc(C4(C)CC4)o3)nn12 [Example 1319, (S)-(5-(1-methylcyclopropyl)-1,3,4-oxadiazol-2-yl)(4-(7-methylpyrazolo[1,5-a]pyridin-2-yl)-6,7-dihydro-1H-imidazo[4,5-c]pyridin-5(4H)-yl)methanone] |
| 500 to 1000 | O=C(c1cnn2ccccc12)N1CCc2[nH]cnc2[C@H]1c1cc2ccccn2n1 [Example 600, (S)-(4-(pyrazolo[1,5-a]pyridin-2-yl)-6,7-dihydro-1H-imidazo[4,5-c]pyridin-5(4H)-yl)(pyrazolo[1,5-a]pyridin-3-yl)methanone] |
| 500 to 1000 | Cc1cccc2cc([C@@H]3c4nc[nH]c4CCN3C(=O)c3nnc(C4CC4)o3)nn12 [Example 940, (S)-(5-cyclopropyl-1,3,4-oxadiazol-2-yl)(4-(7-methylpyrazolo[1,5-a]pyridin-2-yl)-6,7-dihydro-1H-imidazo[4,5-c]pyridin-5(4H)-yl)methanone] |
| 1000 to 5000 | Cc1cccc2cc([C@H]3c4nc[nH]c4CCN3C(=O)c3oc(C4(O)CC4)nc3C(F)F)nn12 [Example 1281, (R)-(4-(difluoromethyl)-2-(1-hydroxycyclopropyl)oxazol-5-yl)(4-(7-methylpyrazolo[1,5-a]pyridin-2-yl)-6,7-dihydro-1H-imidazo[4,5-c]pyridin-5(4H)-yl)methanone] |
| > 5000 | Cc1cccn2nc([C@H]3c4nc[nH]c4CCN3C(=O)c3nnc(-c4ccnn4C)o3)cc12 [Example 1017, (R)-(5-(1-methyl-1H-pyrazol-5-yl)-1,3,4-oxadiazol-2-yl)(4-(4-methylpyrazolo[1,5-a]pyridin-2-yl)-6,7-dihydro-1H-imidazo[4,5-c]pyridin-5(4H)-yl)methanone] |
| < 500 | Cc1cccc2cc([C@@H]3c4nc[nH]c4CCN3C(=O)c3nnc(-c4ccn(C(F)F)n4)o3)nn12 [Example 936, (S)-(5-(1-(difluoromethyl)-1H-pyrazol-3-yl)-1,3,4-oxadiazol-2-yl)(4-(7-methylpyrazolo[1,5-a]pyridin-2-yl)-6,7-dihydro-1H-imidazo[4,5-c]pyridin-5(4H)-yl)methanone] |
| < 500 | Cc1cnn(C)c1-c1nnc(C(=O)N2CCc3[nH]cnc3[C@H]2c2cc3c(C)cccn3n2)o1 [Example 926, (S)-(5-(1,4-dimethyl-1H-pyrazol-5-yl)-1,3,4-oxadiazol-2-yl)(4-(4-methylpyrazolo[1,5-a]pyridin-2-yl)-6,7-dihydro-1H-imidazo[4,5-c]pyridin-5(4H)-yl)methanone] |
| 500 to 1000 | Cc1cccc2cc([C@@H]3c4nc[nH]c4CCN3C(=O)c3nnc(-c4ncccn4)o3)nn12 [Example 1337, (S)-(4-(7-methylpyrazolo[1,5-a]pyridin-2-yl)-6,7-dihydro-1H-imidazo[4,5-c]pyridin-5(4H)-yl)(5-(pyrimidin-2-yl)-1,3,4-oxadiazol-2-yl)methanone] |
| < 500 | Cc1nn(C)cc1-c1nnc(C(=O)N2CCc3[nH]cnc3[C@H]2c2cc3c(C)cccn3n2)o1 [Example 844, (S)-(5-(1,3-dimethyl-1H-pyrazol-4-yl)-1,3,4-oxadiazol-2-yl)(4-(4-methylpyrazolo[1,5-a]pyridin-2-yl)-6,7-dihydro-1H-imidazo[4,5-c]pyridin-5(4H)-yl)methanone] |
| 500 to 1000 | CC(C)(F)c1nnc(C(=O)N2CCc3[nH]cnc3[C@H]2c2cc3c(OC(F)F)cccn3n2)o1 [Example 1728, (S)-(4-(4-(difluoromethoxy)pyrazolo[1,5-a]pyridin-2-yl)-6,7-dihydro-1H-imidazo[4,5-c]pyridin-5(4H)-yl)(5-(2-fluoropropan-2-yl)-1,3,4-oxadiazol-2-yl)methanone] |
| > 5000 | O=C(c1nnc(-c2cnn(S(=O)(=O)C3CC3)c2)o1)N1CCc2[nH]cnc2[C@@H]1c1cc2c(F)cccn2n1 [Example 835, (R)-(5-(1-(cyclopropylsulfonyl)-1H-pyrazol-4-yl)-1,3,4-oxadiazol-2-yl)(4-(4-fluoropyrazolo[1,5-a]pyridin-2-yl)-6,7-dihydro-1H-imidazo[4,5-c]pyridin-5(4H)-yl)methanone] |
| 1000 to 5000 | O=C(c1ocnc1C1CC1)N1CCc2[nH]cnc2[C@@H]1c1cc2ccccn2n1 [Example 619, (R)-(4-cyclopropyloxazol-5-yl)(4-(pyrazolo[1,5-a]pyridin-2-yl)-6,7-dihydro-1H-imidazo[4,5-c]pyridin-5(4H)-yl)methanone] |
